target: 15-PGDH (Homo sapiens (Human), UniProt P15428); test: Assay for the activities of 15-PGDH inhibitors (formation of NADH at 340 nm); type: biochemical; conditions: purified 15-PGDH enzyme, 21 μM PGE2, 0.25 mM NAD+, pH 7.5; concentration inhibiting 50% of 15-PGDH activity
Sequence (P15428 whole entry): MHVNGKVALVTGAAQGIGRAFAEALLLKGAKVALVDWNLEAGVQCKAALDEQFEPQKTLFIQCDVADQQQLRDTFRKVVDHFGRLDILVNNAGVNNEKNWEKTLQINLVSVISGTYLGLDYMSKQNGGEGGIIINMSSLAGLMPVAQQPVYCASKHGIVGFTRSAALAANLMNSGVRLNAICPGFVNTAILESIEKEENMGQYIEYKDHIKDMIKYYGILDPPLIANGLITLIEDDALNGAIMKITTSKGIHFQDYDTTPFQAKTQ

Compound | IC50
COc1ccc(COc2ccc(/C=C3\SC(=O)NC3=O)cc2)cc1 [Derivative 28, 5-(4-(4-methoxybenzyloxy)benzylidene)thiazolidine-2,4-dione] | 728 nM
O=C1NC(=O)/C(=C/c2ccc(OCCC3CCCCC3)cc2)S1 [Derivative 46, 5-(4-(2-cyclohexylethoxy)benzylidene)thiazolidine-2,4-dione] | 50.9 nM
O=C1NC(=O)/C(=C/c2ccc(OCCCC3CCCCC3)c(Cl)c2)S1 [Derivative 32, 5-(3-chloro-4-(3-cyclohexylpropoxy)benzylidene)thiazolidine-2,4-dione] | 10.3 nM
O=C1NC(=O)/C(=C/c2ccc(OCC3CCCC3)cc2)S1 [Derivative 35, 5-(4-(cyclopentylmethoxy)benzylidene)thiazolidine-2,4-dione] | 42.5 nM
O=C1NC(=O)C(Cc2ccc(OCCN3CCS(=O)(=O)CC3)cc2)S1 (stereo not drawn) [Derivative 126, 5-(4-(2-thiomorpholine-1,1-Dioxideethoxy)benzyl)-2,4-thiazolidinedione] | 1390 nM
O=C1NC(=O)C(Cc2ccc(OCCC3CCCCC3)cc2)S1 (stereo not drawn) [Derivative 113, 5-(4-(2-cyclohexylethoxy)benzyl)thiazolidine-2,4-dione] | 977 nM

Further molecules by falling IC50, results first:

IC50 | Compound
961 nM | CC(C)OCCOc1ccc(/C=C2\SC(=O)NC2=O)cc1 [Derivative 1, 5-(4-(2-isopropoxyethoxy)benzylidene)thiazolidine-2,4-dione]
125 nM | O=C1NC(=O)C(Cc2ccc(OCC3CCCCC3)c(Cl)c2)S1 (single isomer, unassigned)
95.9 nM | O=C1NC(=O)/C(=C/c2ccc(OCCc3cccs3)cc2)S1 [Derivative 3, 5-(4-(2-(thiophen-2-yl)ethoxy)benzylidene)thiazolidine-2,4-dione]

Source: patent US8637558B2 (Industry-Academic Cooperation Foundation, Chosun University, priority 2008, dated 2014)
